Measured values from US11993588B2, “Crystalline forms of a MAGL inhibitor” (H. Lundbeck A/S, priority 2016, dated 2024).
≈ marks a conversion by molar mass, not a printed value. Counter-ions that a name gives are not always drawn. Like-named read-outs stand apart in the source and are kept apart here.

Legend:
Assay type in all cases: physicochemical
[1] = Solvent solubility screen for Compound 1; conditions: thermodynamic from solid, crystalline Compound 1 (Form 1), read-out: Approximate Solubility
Procedure: Ca. 10 mg of crystalline Compound 1 was placed in 32 vials and 5 volume aliquots of the appropriate solvent systems were added to the appropriate vial. Between each addition, the mixture was checked for dissolution and if no dissolution was apparent, the mixture was heated to ca. 40° C. and checked again. This procedure was continued until dissolution was observed or until 100 volumes of solvent had been added. After the addition of 100 volumes, a further 100 volumes were added to samples which had not dissolved to give a total of 200 volumes. If 200 volumes were added without dissolution, the solubility was calculated to be below this point (<5 mg/mL).

[2] = Gravimetric vapor sorption (GVS); conditions: for hygroscopic nature / weight uptake: GVS; for Post-GVS analysis by XRPD (form change): after GVS sorption/desorption cycle
Procedure: Approximately 10 mg of sample was placed into a mesh vapour sorption balance pan and loaded into an IGASorp Moisture Sorption Analyser balance by Hiden Analytical. The sample was subjected to a ramping profile from 40-90% relative humidity (RH) at 10% increments, maintaining the sample at each step until a stable weight had been achieved (98% step completion). After completion of the sorption cycle, the sample was dried using the same procedure to 0% RH, and finally taken back to the starting point of 40% RH. The weight change during the sorption/desorption cycles were plotted, allowing for the hygroscopic nature of the sample to be determined.

7-day stability testing = test: 7-day stability testing
Procedure: Form 2 of Compound 2 was scaled up in two solvents. Material underwent 7-day stability testing and/or aqueous solubility assessment. The 7-day stability testing was conducted as follows. Material was exposed to environments of 40° C./75% RH, ambient light and 80° C. for 7 days and the resulting solids analysed by XRPD to determine if any changes had occurred, and by HPLC to determine purity. The aqueous solubility assessment was conducted as follows. A slurry was created in deionised water (5.1 mg of Form 2 and 300 μL of water) and shaken for ca. 24 hours at ambient temperature (ca. 22° C.). The initial pH and final pH were measured. The resulting mixture was then isolated by centrifuge filtration, and the solution obtained analysed by HPLC to calculate the concentration of material dissolved. Remaining solid was analysed by XRPD to determine if any changes had occurred on slurrying.

[3] = Compound 6 polymorph screen; conditions: among the three Compound 6 polymorphs
Description: In a Compound 6 polymorph screen, two additional Compound 6 crystalline forms were identified. Compound 6, Form 2, was isolated from a 95/5 acetone/water slurry and Compound 6, Form 3, was isolated from in a 80/20 dioxane/water mixture.

[4] = ambient light / ambient conditions for 7 days

**Q.** Which results are given for `O=C(OC(C(F)(F)F)C(F)(F)F)N1CCN(Cc2ccc(C(F)(F)F)cc2N2CCCC2)CC1` [Compound 1, 1,1,1,3,3,3-hexafluoropropan-2-yl 4-(2-(pyrrolidin-1-yl)-4-(trifluoromethyl)benzyl)piperazine-1-carboxylate]?
**A.** solubility ([1]; aqueous with cosolvent or surfactant or cyclodextrin, 2-Propanol:water (50%)): < 5 mg/mL; solubility ([1]; aqueous with cosolvent or surfactant or cyclodextrin, Acetone:water (50%), precipitated after ca. 30 minutes): > 202 mg/mL; solubility ([1]; aqueous with cosolvent or surfactant or cyclodextrin, Methanol:water (50%)): < 5 mg/mL; solubility ([1]; organic solvent or mixture, 1,4-Dioxane): > 206 mg/mL; solubility ([1]; organic solvent or mixture, 1-Butanol): 39 mg/mL (≈ 76.9 mM); solubility ([1]; organic solvent or mixture, 2-Ethoxyethanol): 103 mg/mL (≈ 203 mM); solubility ([1]; organic solvent or mixture, 2-Methyl tetrahydrofuran): > 200 mg/mL; solubility ([1]; organic solvent or mixture, 2-Propanol, precipitated after ca. 2 days): 69 mg/mL (≈ 136 mM); solubility ([1]; organic solvent or mixture, Acetone): > 202 mg/mL; solubility ([1]; organic solvent or mixture, Acetonitrile): > 196 mg/mL; solubility ([1]; organic solvent or mixture, Anisole): > 200 mg/mL; solubility ([1]; organic solvent or mixture, Benzonitrile): > 214 mg/mL; solubility ([1]; organic solvent or mixture, Chlorobenzene): 69 mg/mL (≈ 136 mM); solubility ([1]; organic solvent or mixture, Dichloromethane): > 198 mg/mL; solubility ([1]; organic solvent or mixture, Diisopropyl Ether): > 208 mg/mL; solubility ([1]; organic solvent or mixture, Dimethylacetamide): > 204 mg/mL; solubility ([1]; organic solvent or mixture, Dimethylformamide): > 204 mg/mL; solubility ([1]; organic solvent or mixture, Dimethylsulfoxide): 50 mg/mL (≈ 98.5 mM); solubility ([1]; organic solvent or mixture, Ethanol): 67 mg/mL (≈ 132 mM); solubility ([1]; organic solvent or mixture, Ethyl acetate): > 198 mg/mL; solubility ([1]; organic solvent or mixture, Heptane): 49 mg/mL (≈ 96.6 mM); solubility ([1]; organic solvent or mixture, Hexane): 49 mg/mL (≈ 96.6 mM); solubility ([1]; organic solvent or mixture, Isopropyl acetate): > 198 mg/mL; solubility ([1]; organic solvent or mixture, Methanol): 72 mg/mL (≈ 142 mM); solubility ([1]; organic solvent or mixture, Methyl isobutyl ketone): > 196 mg/mL; solubility ([1]; organic solvent or mixture, Methylethyl ketone): > 202 mg/mL; solubility ([1]; organic solvent or mixture, N-Methyl-2-pyrrolidone): > 198 mg/mL; solubility ([1]; organic solvent or mixture, Tetrahydrofuran): > 198 mg/mL; solubility ([1]; organic solvent or mixture, Toluene): > 202 mg/mL; solubility ([1]; organic solvent or mixture, tert-Amyl alcohol): 69 mg/mL (≈ 136 mM); solubility ([1]; organic solvent or mixture, tert-Butylmethyl ether): > 196 mg/mL; solubility ([1]; Water): < 5 mg/mL

**Q.** With `Cl.Cl.O=C(OC(C(F)(F)F)C(F)(F)F)N1CCN(Cc2ccc(C(F)(F)F)cc2N2CCCC2)CC1` [Compound 3, 1,1,1,3,3,3-hexafluoropropan-2-yl 4-(2-(pyrrolidin-1-yl)-4-(trifluoromethyl)benzyl)piperazine-1-carboxylate bis-HCl salt] as the compound, how does the hygroscopic nature [2] read?
**A.** Its hygroscopic nature is “slightly hygroscopic”.

**Q.** And the weight uptake ([2]; at 90% RH)?
**A.** The weight uptake was 1.4%.

**Q.** What about the “Post-GVS analysis by XRPD (form change)” value [2] of the same compound?
**A.** The value was “remain unchanged”.

**Q.** For `CS(=O)(=O)O.O=C(OC(C(F)(F)F)C(F)(F)F)N1CCN(Cc2ccc(C(F)(F)F)cc2N2CCCC2)CC1` [Compound 5, 1,1,1,3,3,3-hexafluoropropan-2-yl 4-(2-(pyrrolidin-1-yl)-4-(trifluoromethyl)benzyl)piperazine-1-carboxylate mesylate salt], which “HPLC purity after stability testing” value (7-day stability testing; 40° C./75% RH for 7 days) is on record?
**A.** Its value is 99.98%.

**Q.** What about the “HPLC purity after stability testing” value (7-day stability testing; 80° C. for 7 days) of the same compound?
**A.** Its value is 99.97%.

**Q.** And the “HPLC purity after stability testing” value (7-day stability testing; [4])?
**A.** Its value is 99.95%.

**Q.** What about the hygroscopic nature [2] of the same compound?
**A.** The hygroscopic nature was “moderately hygroscopic”.

**Q.** And the weight uptake ([2]; at 90% RH)?
**A.** Its weight uptake is 3.5%.

**Q.** What about the weight uptake ([2]; up to 70% humidity) of the same compound?
**A.** Its weight uptake is 2.8%.

**Q.** What about the “Post-GVS analysis by XRPD (form change)” value [2] of the same compound?
**A.** The value was “maintained its form and crystallinity”.

**Q.** What does the source list for `O=C(OC(C(F)(F)F)C(F)(F)F)N1CCN(Cc2ccc(C(F)(F)F)cc2N2CCCC2)CC1` [Compound 6, 1,1,1,3,3,3-hexafluoropropan-2-yl 4-(2-(pyrrolidin-1-yl)-4-(trifluoromethyl)benzyl)piperazine-1-carboxylate fumarate salt]?
**A.** HPLC purity after stability testing (7-day stability testing; 40° C./75% RH for 7 days): 99.9%; HPLC purity after stability testing (7-day stability testing; 80° C. for 7 days): 99.9%; HPLC purity after stability testing (7-day stability testing; [4]): 99.9%; relative thermodynamic stability of polymorphs [3]: thermodynamically most stable form
